Test results as given in PubChem BioAssay (NCI).
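Growth conditions: 96-well plates. Treatment: test compound, 48 hours, 5 concentrations. Analysis: linear interpolation between bracketing concentrations; unreached endpoints set to highest concentration. GI50 = concentration required for 50% inhibition of growth. TGI: total growth inhibition.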

Experiments:
Assay in all cases: inhibition of tumour cell growth, NCI panel, 48 h
HCC-2998 colon = system: HCC-2998 colon
MALME-3M melanoma = system: MALME-3M melanoma
UACC-257 melanoma = system: UACC-257 melanoma
EKVX NSCLC = system: EKVX NSCLC
K-562 leukemia = system: K-562 leukemia
UO-31 renal = system: UO-31 renal
IGROV1 ovarian = system: IGROV1 ovarian
COLO 205 colon = system: COLO 205 colon
SF-295 CNS = system: SF-295 CNS
NCI-H522 lung = system: NCI-H522 lung

SMILES	TGI (HCC-2998 colon) [µM]	TGI (MALME-3M melanoma) [µM]	TGI (UACC-257 melanoma) [µM]	TGI (EKVX NSCLC) [µM]	TGI (K-562 leukemia) [µM]	TGI (UO-31 renal) [µM]	TGI (IGROV1 ovarian) [µM]	TGI (COLO 205 colon) [µM]	TGI (SF-295 CNS) [µM]	GI50 (NCI-H522 lung) [µM]	TGI (NCI-H522 lung) [µM]	GI50 (HCC-2998 colon) [µM]	GI50 (MALME-3M melanoma) [µM]	GI50 (UACC-257 melanoma) [µM]	GI50 (K-562 leukemia) [µM]	GI50 (UO-31 renal) [µM]	GI50 (IGROV1 ovarian) [µM]	GI50 (COLO 205 colon) [µM]	GI50 (SF-295 CNS) [µM]	GI50 (EKVX NSCLC) [µM]
COC(=O)C1C(=O)O[C@@H](c2ccc(OC)cc2)C1C(=O)OC (some centres not stated)	> 100	> 100	> 100	> 100	> 100	> 100	> 100	> 100	> 100	–	–	–	–	–	–	–	–	–	–	–
COc1cc(C2=Nc3c/c(=C\c4c(O)[nH]c5ccc(Cl)cc45)ccc3=N2)cc(OC)c1OC	21.8	3.71	4.77	–	25.5	16.1	20.3	7.27	29.7	3.17	10.7	4.44	1.79	1.96	4.21	2.96	5.46	2.45	11.7	–
C=CCOC1=C2CC[C@H](O)[C@@]2(C)CCC1=O	> 100	> 100	> 100	> 100	–	> 100	> 100	> 100	> 100	–	> 100	–	–	–	–	–	–	–	–	–
O=C1C(=O)c2ccccc2C=C1[N+](=O)[O-]	> 100	–	58.9	56.8	> 100	> 100	> 100	> 100	> 100	–	> 100	–	–	–	–	–	–	–	–	–
COc1ccc(Nc2nc(NCc3ccccc3)c3ccccc3n2)cc1	7.6	3.69	13.8	–	5.71	19.8	25.7	3.33	23.4	3.66	16.1	2.9	1.92	3.82	2.01	5.09	7.12	1.86	4.78	–
O=C(Nc1cccc(-n2cc(-c3ccncc3)c(-c3cc(O)cc(Cl)c3)n2)c1)Nc1ccc(Cl)c(Cl)c1	8.99	5.48	4.3	–	> 100	6.51	9.23	3.78	4.6	1.1	3.14	2.93	1.8	1.95	2.56	1.91	2.86	1.96	1.7	–
S=C1CNC(=S)CN1	> 100	> 100	> 100	–	> 100	> 100	> 100	> 100	> 100	–	> 100	–	–	–	–	–	–	–	–	–
O=C(c1ccc(F)c(F)c1Nc1ccc(I)cc1F)N1CC(O)([C@H]2CCCCN2)C1	2.62	0.0976	0.472	–	13.5	13.9	13.9	4.1	28.9	8.01	22.9	0.223	0.019	0.08	3.53	1.42	1.43	0.0735	14.5	–
NC(=O)c1cccc(N)c1	> 100	> 100	–	> 100	> 100	> 100	> 100	> 100	> 100	> 100	> 100	> 100	> 100	–	> 100	> 100	> 100	> 100	> 100	> 100
NC(Cc1cc(Br)c(O)c(Br)c1)C(=O)O (configuration not stated)	–	> 100	> 100	> 100	> 100	–	> 100	> 100	> 100	–	> 100	–	–	–	–	–	–	–	–	–
O=Cc1ncc(-c2ccc(C(F)(F)F)cc2)c(NC2CCCCCC2)n1	> 10	> 10	> 10	–	> 10	> 10	> 10	> 10	> 10	> 10	> 10	> 10	> 10	> 10	> 10	> 10	> 10	> 10	> 10	–
COc1ccc(S(=O)(=O)Nc2cc(/C=C\c3cc(OC)c(OC)c(OC)c3)cc(OC)c2OC)cc1OC	> 100	–	> 100	> 100	> 100	> 100	> 100	> 100	55.6	0.369	> 100	1.83	–	27	0.425	1.59	4.58	1.28	0.47	3.6
Clc1cccc(Cn2cc(Cc3cn(Cc4cccc(Cl)c4)c4ccccc34)c3ccccc32)c1	> 100	> 100	> 100	–	> 100	> 100	> 100	> 100	> 100	45.5	> 100	> 100	> 100	> 100	> 100	10.5	32	> 100	86.2	–
CCOC(=O)CC(=O)N(c1ccc(OC)cc1)C(C(=O)OC)c1ccccc1 (configuration not stated)	–	–	> 100	> 100	> 100	> 100	> 100	> 100	> 100	–	> 100	–	–	–	–	–	–	–	–	–
CC12Oc3ccc4ccccc4c3C1c1c(ccc3ccccc13)O2 (configuration not stated)	–	> 100	–	> 100	> 100	> 100	> 100	> 100	> 100	–	> 100	–	–	–	–	–	–	–	–	–
Cn1c(O)c(C=N)c(=O)n(C)c1=O	> 100	> 100	> 100	> 100	> 100	> 100	–	–	> 100	–	> 100	–	–	–	–	–	–	–	–	–
